Experimental data taken from ChEMBL document CHEMBL6103618, “Discovery of Novel Oxazolo[4,3-f]purine Derivatives as Antitumor Agents through PPIA Interaction” (J Med Chem, 2025).
The source made the active and inactive calls. The rule behind the calls is not given here.

Assays:
HCT-116 [1] = test: Induction of apoptosis in human HCT-116 cells assessed as increase in Bax level at 1.2 uM in presence of NAC by Western blot analysis; format: functional, cell-based
MCF7 = test: Antiproliferative activity against human MCF7 cells assessed as inhibition of cell viability incubated for 48 hrs by CCK8 assay; format: functional, cell-based; settings: MCF7, 48 h
PANC-1 = test: Antiproliferative activity against human PANC-1 cells assessed as inhibition of cell viability incubated for 48 hrs by CCK8 assay; format: functional, cell-based; settings: PANC-1, 48 h
HepG2 = test: Antiproliferative activity against human HepG2 cells assessed as inhibition of cell viability incubated for 48 hrs by CCK8 assay; format: functional, cell-based; settings: HepG2, 48 h
HCT-116 [2] = test: Induction of cell cycle arrest in human HCT-116 cells assessed as accumulation at G2 phase at 0.3 uM incubated for 48 hrs by PI staining based flow cytometry (reference value: 6.08 %); format: functional
HCT-116 [3] = test: Induction of cell cycle arrest in human HCT-116 cells assessed as accumulation at S phase at 0.6 uM incubated for 48 hrs by PI staining based flow cytometry (reference value: 34.55 %); format: functional
HCT-116 [4] = test: Induction of apoptosis in human HCT-116 cells assessed as viable cells at 0.3 uM incubated for 48 hrs by Annexin V-FITC/PI staining based flow cytometry (reference value: 96.2 %); format: functional; settings: read-out: Activity
HCT-116 [5] = test: Induction of apoptosis in human HCT-116 cells assessed as viable cells at 0.6 uM incubated for 48 hrs by Annexin V-FITC/PI staining based flow cytometry (reference value: 96.2 %); format: functional; settings: read-out: Activity
HCT-116 [6] = test: Induction of apoptosis in human HCT-116 cells assessed as late apoptotic cells at 0.6 uM incubated for 48 hrs by Annexin V-FITC/PI staining based flow cytometry (reference value: 1.55 %); format: functional
HCT-116 [7] = test: Induction of apoptosis in human HCT-116 cells assessed as viable cells at 1.2 uM incubated for 48 hrs by Annexin V-FITC/PI staining based flow cytometry (reference value: 96.2 %); format: functional; settings: read-out: Activity
HCT-116 [8] = test: Induction of apoptosis in human HCT-116 cells assessed as necrotic cells at 1.2 uM incubated for 48 hrs by Annexin V-FITC/PI staining based flow cytometry (reference value: 1.15 %); format: functional
HCT-116 [9] = test: Induction of intracellular ROS generation in human HCT-116 cells at 1.2 uM in presence of NAC by flow cytometry; format: functional, cell-based
HCT-116 [10] = test: Induction of ER stress in human HCT-116 cells assessed as increase in ATF4 level at 0.3 to 1.2 uM by Western blot analysis; format: functional, cell-based; settings: dose 0.3-1.2 µM
HCT-116 [11] = test: Induction of ER stress in human HCT-116 cells assessed as increase in CHOP level at 0.3 to 1.2 uM by Western blot analysis; format: functional, cell-based; settings: dose 0.3-1.2 µM
HCT-116 [12] = test: Induction of mitochondrial dysfunction in human HCT-116 cells at 1.2 uM in presence of NAC by JC-1 dye based analysis; format: functional, cell-based
HCT-116 [13] = test: Effect on NME1 expression in human HCT-116 cells upto 6 uM incubated for 30 mins followed by pronase addition measured after 30 mins by DARTS assay; format: functional, cell-based; settings: time 60.0 min
HCT-116 [14] = test: Effect on VCP expression in human HCT-116 cells upto 6 uM incubated for 30 mins followed by pronase addition measured after 30 mins by DARTS assay; format: functional, cell-based
[15] = biological target: Peptidyl-prolyl cis-trans isomerase A (Homo sapiens, UniProt P62937); test: Binding affinity to CM5 chip-immobilized PPIA (unknown origin) assessed as dissociation constant by SPR analysis
Chain of Peptidyl-prolyl cis-trans isomerase A (P62937 whole entry): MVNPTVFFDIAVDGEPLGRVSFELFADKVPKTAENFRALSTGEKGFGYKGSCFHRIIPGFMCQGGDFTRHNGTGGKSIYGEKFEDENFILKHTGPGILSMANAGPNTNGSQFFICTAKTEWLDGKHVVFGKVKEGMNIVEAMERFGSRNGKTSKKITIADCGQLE

HCT-116 [16] = test: Induction of apoptosis in human HCT-116 cells assessed as decrease in p-JNK level by Western blot analysis; format: functional, cell-based; settings: dose 0.3-1.2 µM
HCT-116 [17] = test: Cytotoxicity against human HCT-116 cells harboring siPPIA-3 assessed as inhibition of cell viability incubated for 48 hrs by CCK8 assay; format: functional, cell-based; settings: HCT-116, 48 h
HCT-116 [18] = test: Inhibition of colony formation in human HCT-116 cells harboring siNC at 1.2 uM incubated for 48 hrs followed by fresh media replacement without compound on every 72 hrs for 14 days by crystal violet staining based analysis; format: functional, cell-based
HCT-116 [19] = test: Inhibition of colony formation in human HCT-116 cells harboring siPPIA-3 at 1.2 uM incubated for 48 hrs followed by fresh media replacement without compound on every 72 hrs for 14 days by crystal violet staining based analysis; format: functional, cell-based
HCT-116 [20] = test: Anti-proliferative activity against human HCT-116 cells harboring siNC assessed as decrease in p-ERK1/2 level at 1.2 uM by Western blot analysis; format: functional, cell-based
HCT-116 [21] = test: Anti-proliferative activity against human HCT-116 cells harboring siPPIA-3 assessed as decrease in p-JNK level at 1.2 uM by Western blot analysis; format: functional, cell-based
HCT-116 [22] = test: Anti-proliferative activity against human HCT-116 cells harboring siPPIA-3 assessed as decrease in p-ERK1/2 level at 1.2 uM by Western blot analysis; format: functional, cell-based
HCT-116 [23] = test: Induction of apoptosis in human HCT-116 cells harboring siNC assessed as early apoptotic cells at 1.2 uM by Annexin V-FITC/PI staining based flow cytometry (reference value: 1.52 %); format: functional
HCT-116 [24] = test: Induction of apoptosis in human HCT-116 cells harboring siPPIA-3 assessed as early apoptotic cells at 1.2 uM by Annexin V-FITC/PI staining based flow cytometry (reference value: 7.82 %); format: functional
[25] = Acute toxicity in BALB/c mouse assessed as lethal dose administered intraperitoneally measured for 14 days; settings: in vivo, route ip, time 14 day
[26] = Acute toxicity in BALB/c mouse assessed as death rate at 180 mg/kg, ip measured for 14 days; format: organism-based; settings: both, in vivo, time 14 day, read-out: Activity
[27] = Acute toxicity in BALB/c mouse assessed as death rate at 350 mg/kg, ip measured for 14 days; format: organism-based; settings: both, in vivo, time 14 day, read-out: Activity
[28] = Toxicity in BALB/c mouse implanted with mouse CT26 cells assessed as injury in lung at 15 to 45 mg/kg, ip qd treated for 14 days by H and E staining based analysis; format: organism-based; settings: in vivo, 336 h, dose 15-45 mg/kg, time 14 day
[29] = Toxicity in BALB/c mouse implanted with mouse CT26 cells assessed as injury in kidney at 15 to 45 mg/kg, ip qd treated for 14 days by H and E staining based analysis; format: organism-based; settings: in vivo, 336 h, dose 15-45 mg/kg, time 14 day
[30] = Toxicity in BALB/c mouse implanted with mouse CT26 cells assessed as abnormality in heart at 15 to 45 mg/kg, ip qd treated for 14 days by H and E staining based analysis; format: organism-based; settings: in vivo, 336 h, dose 15-45 mg/kg, time 14 day
[31] = Toxicity in BALB/c mouse implanted with mouse CT26 cells assessed as abnormality in liver at 15 to 45 mg/kg, ip qd treated for 14 days by H and E staining based analysis; format: organism-based; settings: in vivo, 336 h, dose 15-45 mg/kg, time 14 day
CT26 = test: Antitumor activity against mouse CT26 cells implanted in BALB/c mouse assessed as decrease in Ki67 level at 15 to 45 mg/kg, ip qd treated for 14 days by IHC analysis; format: functional, organism-based; settings: dose 15-45 mg/kg, time 14.0 day

C=C(C(=O)OC)N1c2nc(Cl)nc(Cl)c2N2C(c3ccccc3F)OC(C(=O)OCC)(C(=O)OCC)C12 (racemic)
Activity (HCT-116 [1]): inactive
IC50 (MCF7): 1190 nM
IC50 (PANC-1): 3310 nM
IC50 (HepG2): 2160 nM
Activity (HCT-116 [2]): 6.26%
Activity (HCT-116 [3]): 28.97%
viability at 0.3 µM (HCT-116 [4]): 82.9%
viability at 0.6 µM (HCT-116 [5]): 77.5%
Activity (HCT-116 [6]): 5.53%
viability at 1.2 µM (HCT-116 [7]): 68%
Activity (HCT-116 [8]): 2.4%
Activity (HCT-116 [9]): inactive
Activity (HCT-116 [10]): Active
Activity (HCT-116 [11]): Active
Activity (HCT-116 [12]): inactive
Activity (HCT-116 [13]): No effect
Activity (HCT-116 [14]): No effect
Kd [15]: 520 nM
Activity (HCT-116 [16]): Dose-dependent-effect
IC50 (HCT-116 [17]): 1940 nM
inhibition (HCT-116 [18]): Active
inhibition (HCT-116 [19]): inactive
Activity (HCT-116 [20]): Active
Activity (HCT-116 [21]): inactive
Activity (HCT-116 [22]): inactive
Activity (HCT-116 [23]): 16.8%
Activity (HCT-116 [24]): 8.6%
LD50 at 336 h [25]: 453 mg/kg
mortality at 336 h [26]: 0%
mortality at 336 h [27]: 20%
Activity [28]: Non-toxic
Activity [29]: Non-toxic
Activity [30]: Non-toxic
Activity [31]: Non-toxic
Activity (CT26): Active
